Source: patent publication US7022681B2, “Partial and full agonists of A1 adenosine receptors” (CV Therapeutics, Inc., priority 2002, dated 2006)

Columns and labels:
[1] = target: A1 receptor (Cavia porcellus, UniProt P47745); details: chronic administration for 7 days, guinea pigs; cited from earlier work
[2] = system: seizures induced by DMCM; details: experimental models of epilepsy; cited from earlier work
[3] = system: awake rats; experiment: Antilipolytic properties: NEFA concentration in awake rats; format: in vivo, rat; details: oral administration
Description: • Animals. Male Sprague-Dawley rats (380–420 g) were purchased from Simonsen Laboratories (Gilroy, Calif.). All animals received humane care according to the guidelines set forth in The Principles of Laboratory Animal Care formulated by the National Society for Medical Research and the Guide for the Care and Use of Laboratory Animals prepared by the Institute of Laboratory Animal Resources and published by the National Institute of Health (NIH Publication 86-23, revised 1996). • Isolation of Rat Epididymal Adipocytes. Adipocytes were isolated from the epididymal fat pads of rats as described previously (Rodbell, 1964). Briefly, rats were anesthetized using methoxyfluorane and killed by exsanguination. Epididymal fat tissue was removed and placed into a modified Krebs (KRH) solution containing NaCl (100 mM), KCl (4.7 mM), CaCl2 (2.5 mM), NaHCO3 (3.6 mM), MgSO4 (1.19 mM), KH2PO4 (1.18 mM), dextrose (5 mM), pyruvic acid (5 mM), ascorbic acid (1 mM), and HEPES (5 mM), pH 7.4. Visible blood vessels were dissected and excised, and the adipose tissue was minced. Minced tissue was digested with 25 ml of fresh KRH solution containing type I collagenase (1 mg/ml), fatty-acid free BSA [1% (wt/vol)] and nicotinic acid (2_M, to inhibit lipolysis) for 40 to 60 minutes at 37° C. with continuous gentle shaking. The cell suspension was filtered through a nylon-mesh (210_m) to remove undigested tissue fragments. The cell filtrate was washed three times using KRH solution containing 1% fatty acid-free BSA at 37° C. The final adipocyte suspension was either diluted in fresh KRH solution with 1% fatty acid-free BSA for use in cAMP experiments, or used to prepare membranes for radioligand binding assays. • cAMP Assays in Isolated Rat Adipocytes. Aliquots (100 μl, 45,000–90,000 cells) of the freshly prepared adipocyte cell suspension were placed into wells of 24-well cell culture plates containing 0.4 ml of KRH solution containing fatty acid-free BSA (1%), ascorbic acid (1 mM), rolipram (10 μM), cilostamide (1 μM), adenosine deaminase (2 U/ml), and appropriate A1 adenosine receptor agonist(s). An aliquot of 0.5 ml of KRH solution containing 60 nM isoproterenol was added to each well, and incubations proceeded for 4 min in an orbital shaker bath maintained at 37° C. Assays were terminated by the addition of 200 μl of 300 mM HCl to each well to lyse the cells. The concentration of cAMP in the cell lysate was determined using colorimetric direct cAMP kits (Assay Designs, Inc., Ann Arbor, Mich.). Adipocyte Membrane Preparation and Competition Binding • Assays. Freshly isolated adipocytes were added to a chilled solution containing sucrose (0.25 M), EDTA (1 mM), and Tris-HCl (10 mM, pH 7.4) and homogenized with 10 strokes using a motordriven tissue grinder. The homogenate was cooled on ice and the fat layer was discarded. The homogenate was then centrifuged at 500 g for 10 min at 4° C. The supernatant under the fat layer was removed, resuspended in fresh buffer, and homogenized a second time with six strokes using the tissue grinder. Cell membranes were collected by centrifugation of the homogenate at 15,000 g for 15 min. The final membrane pellet was resuspended in a solution containing sucrose (0.25 M), phenylmethylsulfonyl fluoride (0.1 mM), leupeptin (5 μg/ml), aprotinin ([…]), adenosine deaminase (2 U/ml), and Tris-HCl (10 mM) buffer, pH 7.4. The membrane suspension was frozen and stored in liquid nitrogen. For competition binding assays, membrane suspensions were thawed and incubated for 2 hours at room temperature in Tris-HCl (50 mM) buffer containing ADA (1 U/ml), guanosine 5-(imido)triphosphate ([…]), and [3H]CPX (1–3nM) and progressively higher concentrations of the competing agent. At the end of incubation, free radioligand was separated from membrane-bound radioligand by filtration through GF/C glass fiber filters (Whatman, Maidstone, UK) using a tissue harvester (Brandel, Inc., Gaithersburg, Md.). Radioactivity was quantified by liquid scintillation counting. […]

[4] = system: awake rats; experiment: Heart rate in awake rats (telemetry); format: in vivo, rat; details: dose levels of 1 mg/kg, 2.5 mg/kg, and 5 mg/kg
Description: Heart rate was measured from rats chronically instrumented with telemetry transmitters. For transmitter implantation, a midline laparotomy was performed on anesthetized rats and a transmitter for ECG recording was sutured to the abdominal wall. The two electrocardiographic leads were tunneled through the wall, passed subcutaneously (one to the left shoulder, the other to the right thigh), and secured in place with sutures. Heart rates of awake rats were measured using a Dataquest ART Gold System (Data Sciences International, St. Paul, Minn.). Cardiac electrical activity was recorded for 10-s periods and used to calculate heart rate in beats per minute. After recording of a baseline heart rate, either vehicle (0.9% DMSO in saline, 0.5 ml) or a compound of Formula I was injected into the intraperitoneal cavity of each rat, and heart rate was monitored at intervals for an additional 3 hours.
The effects of a compound of Formula I on heart rate and serum NEFA reduction concentration were determined in separate groups of rats to avoid the effects of animal handling and blood sampling on heart rate. Three days before an experiment, a catheter ([…] outer diameter) was implanted in the left common carotid artery of each rat using aseptic conditions and sterile technique. […] Serum NEFA concentration was determined using an enzymatic colorimetric assay kit (Wako Chemicals, Richmond, Va.).

Chain of A1 receptor (P47745 whole entry): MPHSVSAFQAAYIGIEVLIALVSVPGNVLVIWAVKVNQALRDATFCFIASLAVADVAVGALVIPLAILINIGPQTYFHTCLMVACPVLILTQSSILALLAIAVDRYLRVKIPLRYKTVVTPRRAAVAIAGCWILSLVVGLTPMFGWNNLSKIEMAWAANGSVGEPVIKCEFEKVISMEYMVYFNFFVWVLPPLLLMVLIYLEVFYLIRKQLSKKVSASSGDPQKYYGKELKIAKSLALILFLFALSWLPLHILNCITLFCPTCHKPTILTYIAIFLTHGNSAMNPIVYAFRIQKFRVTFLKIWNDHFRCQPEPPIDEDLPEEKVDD

With `C[C@H](Cc1ccccc1)Nc1ncnc2c1ncn2[C@@H]1O[C@H](CO)[C@@H](O)[C@H]1O` [R-PIA, R-N6-phenylisopropyladenosine] as the molecule, how does the “desensitization in terms of the dromotropic response” value [1] read?
The value was “desensitization of the A1 receptor”.

For `Cc1ccccc1CNc1ncnc2c1ncn2[C@@H]1O[C@H](CO)[C@@H](O)[C@H]1O` [metrifudil], which “anticonvulsant activity against seizures induced by DMCM” value [2] is on record?
The value was “potent anticonvulsant”.

With `O[C@@H]1[C@H](O)[C@@H](C#Cc2ccccc2F)O[C@H]1n1cnc2c(NC3CCCC3)ncnc21` [(4S,2R,3R,5R)-2-[6-(cyclopentylamino)purin-9-yl]-5-{2-[2-fluorophenyl]-ethynyl}oxolane-3,4-diol] as the molecule, how does the “initial reduction of non-esterified free fatty acid (NEFA)” value ([3]; 1 mg/Kg) read?
The value was 40%.

What about the “time in which plasma levels of NEFA returned to normal” value ([3]; 1 mg/Kg) of the same molecule?
Its value is 2 h.

And the “time the NEFA reduction was maintained” value ([3]; 1 mg/Kg)?
The value was 1 h.

What about the “initial reduction of non-esterified free fatty acid (NEFA)” value ([3]; 2.5 mg/Kg) of the same molecule?
The value was 60%.

What about the “time in which plasma levels of NEFA returned to normal” value ([3]; 2.5 mg/Kg) of the same molecule?
The value was 4 h.

And the “time the NEFA reduction was maintained” value ([3]; 2.5 mg/Kg)?
Its value is 1.5 h.

And the “effect on heart rate” value [4]?
Its value is “no effect on heart rate was observed”.
